Test results as given in ChEMBL document CHEMBL6087472, “Development and Discovery of a Selective Degrader of Casein Kinases 1 δ/ε” (J Med Chem, 2025).
Calls of active or inactive are those of the source. The rule behind the calls is not given here.

Columns and labels:
[1] = biological target: T1, von Hippel-Lindau disease tumor suppressor/Casein kinase I isoform delta (Homo sapiens, UniProt P48730+P40337); assay: PROTAC activity at VHL/HiBit fused CK1 delta in human MV4-11 cells assessed as fold change at 10 uM measured after 6 hrs in presence of MLN4924 by Nano-Glo HiBit assay; type: cell-based
Target sequence in this assay (P40337 whole entry, looked up, the tested form may be a part, canonical isoform): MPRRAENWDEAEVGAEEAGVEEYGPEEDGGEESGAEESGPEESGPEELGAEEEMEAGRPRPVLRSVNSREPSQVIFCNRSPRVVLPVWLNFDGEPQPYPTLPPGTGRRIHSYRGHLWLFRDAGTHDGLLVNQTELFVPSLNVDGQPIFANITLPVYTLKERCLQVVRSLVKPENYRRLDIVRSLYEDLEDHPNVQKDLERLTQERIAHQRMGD
Target sequence in this assay (P48730 whole entry, looked up, the tested form may be a part, canonical isoform): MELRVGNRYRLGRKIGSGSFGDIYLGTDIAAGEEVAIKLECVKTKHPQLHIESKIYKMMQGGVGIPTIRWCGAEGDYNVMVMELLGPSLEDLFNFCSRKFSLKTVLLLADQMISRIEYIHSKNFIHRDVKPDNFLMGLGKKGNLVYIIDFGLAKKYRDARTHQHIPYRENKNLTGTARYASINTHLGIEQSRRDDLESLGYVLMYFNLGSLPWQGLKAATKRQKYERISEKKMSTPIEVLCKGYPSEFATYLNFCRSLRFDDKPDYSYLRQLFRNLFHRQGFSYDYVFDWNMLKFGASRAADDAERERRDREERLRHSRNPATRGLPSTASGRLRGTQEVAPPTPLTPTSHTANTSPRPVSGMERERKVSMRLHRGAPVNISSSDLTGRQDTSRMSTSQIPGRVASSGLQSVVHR

[2] = biological target: T2, von Hippel-Lindau disease tumor suppressor/Casein kinase I isoform alpha (Homo sapiens) (UniProt P48729+P40337); assay: PROTAC activity at VHL/CK1 alpha in human U87 cells assessed as induction of degradation of CK1 alpha at 1 uM measured after 6 hrs; type: cell-based
T2 sequence (P40337 whole entry, looked up, canonical isoform): as the sequence (P40337 whole entry, looked up, the tested form may be a part, canonical isoform) above
T2 sequence (P48729 whole entry, looked up, canonical isoform): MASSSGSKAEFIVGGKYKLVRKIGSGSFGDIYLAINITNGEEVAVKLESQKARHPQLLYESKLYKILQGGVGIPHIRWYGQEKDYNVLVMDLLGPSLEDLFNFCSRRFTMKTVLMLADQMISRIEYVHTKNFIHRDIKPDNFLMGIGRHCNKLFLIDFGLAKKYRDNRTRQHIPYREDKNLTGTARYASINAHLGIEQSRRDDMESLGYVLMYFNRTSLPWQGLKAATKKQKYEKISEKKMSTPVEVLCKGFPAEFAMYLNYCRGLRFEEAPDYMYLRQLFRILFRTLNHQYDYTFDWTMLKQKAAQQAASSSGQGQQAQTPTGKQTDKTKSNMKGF

[3] = biological target: T1, von Hippel-Lindau disease tumor suppressor/Casein kinase I isoform delta; assay: PROTAC activity at VHL/CK1 delta in human MDA-MB-231 cells assessed as induction of degradation of CK1 delta by measuring maximum efficacy at 1 uM measured after 6 hrs relative to control; type: cell-based
Target sequence in this assay (P40337 whole entry, looked up, the tested form may be a part, canonical isoform): as the sequence (P40337 whole entry, looked up, the tested form may be a part, canonical isoform) above
Target sequence in this assay (P48730 whole entry, looked up, the tested form may be a part, canonical isoform): as the sequence (P48730 whole entry, looked up, the tested form may be a part, canonical isoform) above

[4] = biological target: T1, von Hippel-Lindau disease tumor suppressor/Casein kinase I isoform delta; assay: PROTAC activity at VHL/CK1 delta in HEK293 cells assessed as induction of degradation of CK1 delta at 0.3 to 1.0 uM measured after 6 hrs by Western blot analysis relative to control; type: cell-based; settings: dose 0.3-1 µM
Target sequence in this assay (P40337 whole entry, looked up, the tested form may be a part, canonical isoform): as the sequence (P40337 whole entry, looked up, the tested form may be a part, canonical isoform) above
Target sequence in this assay (P48730 whole entry, looked up, the tested form may be a part, canonical isoform): as the sequence (P48730 whole entry, looked up, the tested form may be a part, canonical isoform) above

[5] = biological target: T1, von Hippel-Lindau disease tumor suppressor/Casein kinase I isoform delta; assay: PROTAC activity at VHL/CK1 delta in human MDA-MB-231 cells assessed as induction of degradation of CK1 delta at 1 uM measured after 6 hrs; type: cell-based
Target sequence in this assay (P40337 whole entry, looked up, the tested form may be a part, canonical isoform): as the sequence (P40337 whole entry, looked up, the tested form may be a part, canonical isoform) above
Target sequence in this assay (P48730 whole entry, looked up, the tested form may be a part, canonical isoform): as the sequence (P48730 whole entry, looked up, the tested form may be a part, canonical isoform) above

[6] = biological target: Casein kinase I isoform delta (Homo sapiens) (UniProt P48730); assay: Binding affinity to […] in human HEK293 cells assessed as target engagement at >3 uM; type: cell-based
Sequence of Casein kinase I isoform delta (Homo sapiens) (P48730 whole entry, looked up, the tested form may be a part, canonical isoform): as above

[7] = biological target: T1, von Hippel-Lindau disease tumor suppressor/Casein kinase I isoform delta; assay: PROTAC activity at VHL/HiBit fused CK1 delta in human MV4-11 cells assessed as fold change at 10 uM measured after 6 hrs by Nano-Glo HiBit assay; type: cell-based
Target sequence in this assay (P40337 whole entry, looked up, the tested form may be a part, canonical isoform): as the sequence (P40337 whole entry, looked up, the tested form may be a part, canonical isoform) above
Target sequence in this assay (P48730 whole entry, looked up, the tested form may be a part, canonical isoform): as the sequence (P48730 whole entry, looked up, the tested form may be a part, canonical isoform) above

[8] = biological target: T1, von Hippel-Lindau disease tumor suppressor/Casein kinase I isoform delta; assay: PROTAC activity at VHL/HiBit fused CK1 delta in human MV4-11 cells assessed as fold change at 2.5 uM measured after 6 hrs in presence of MLN4924 by Nano-Glo HiBit assay; type: cell-based
Target sequence in this assay (P40337 whole entry, looked up, the tested form may be a part, canonical isoform): as the sequence (P40337 whole entry, looked up, the tested form may be a part, canonical isoform) above
Target sequence in this assay (P48730 whole entry, looked up, the tested form may be a part, canonical isoform): as the sequence (P48730 whole entry, looked up, the tested form may be a part, canonical isoform) above

[9] = biological target: T3, von Hippel-Lindau disease tumor suppressor/Casein kinase I isoform epsilon (Homo sapiens) (UniProt P49674+P40337); assay: PROTAC activity at VHL/CK1 epsilon in human MDA-MB-231 cells assessed as induction of degradation of CK1 epsilon at 1 uM measured after 6 hrs; type: cell-based
T3 sequence (P40337 whole entry, looked up, canonical isoform): as the sequence (P40337 whole entry, looked up, the tested form may be a part, canonical isoform) above
T3 sequence (P49674 whole entry, looked up, canonical isoform): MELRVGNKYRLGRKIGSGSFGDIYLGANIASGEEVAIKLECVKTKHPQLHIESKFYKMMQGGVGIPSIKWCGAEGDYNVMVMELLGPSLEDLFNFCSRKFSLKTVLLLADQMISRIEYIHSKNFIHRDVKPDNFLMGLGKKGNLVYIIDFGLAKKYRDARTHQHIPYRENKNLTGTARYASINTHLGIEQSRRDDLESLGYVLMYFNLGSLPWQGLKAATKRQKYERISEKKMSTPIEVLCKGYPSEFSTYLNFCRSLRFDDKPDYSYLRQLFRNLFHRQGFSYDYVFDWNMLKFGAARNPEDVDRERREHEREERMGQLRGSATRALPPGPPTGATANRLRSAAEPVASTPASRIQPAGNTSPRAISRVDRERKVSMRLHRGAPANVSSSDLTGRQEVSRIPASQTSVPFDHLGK

[10] = biological target: T3, von Hippel-Lindau disease tumor suppressor/Casein kinase I isoform epsilon (Homo sapiens); assay: PROTAC activity at VHL/CK1 epsilon in HEK293 cells assessed as induction of degradation of CK1 epsilon at 3 uM measured after 6 hrs by Western blot analysis relative to control; type: cell-based
[11] = biological target: T1, von Hippel-Lindau disease tumor suppressor/Casein kinase I isoform delta; assay: PROTAC activity at VHL/CK1 delta in HEK293 cells assessed as induction of degradation of CK1 delta by measuring maximum efficacy at 5 to 10 uM measured after 6 hrs by Western blot analysis relative to control; type: cell-based; settings: dose 5-10 µM
[12] = biological target: T1, von Hippel-Lindau disease tumor suppressor/Casein kinase I isoform delta; assay: PROTAC activity at VHL/Hibit-fused CK1 delta in human MV4-11 cells assessed as degradation of CK1-delta incubated for 6 hrs by Nano-Glo HiBiT assay; type: cell-based
Target sequence in this assay (P48730 whole entry, the tested form may be a part, canonical isoform): as the sequence (P48730 whole entry, looked up, the tested form may be a part, canonical isoform) above
Target sequence in this assay (P40337 whole entry, the tested form may be a part, canonical isoform): as the sequence (P40337 whole entry, looked up, the tested form may be a part, canonical isoform) above

[13] = biological target: T1, von Hippel-Lindau disease tumor suppressor/Casein kinase I isoform delta; assay: PROTAC activity at VHL/HiBit fused CK1 delta in human MV4-11 cells assessed as fold change at 0.63 uM measured after 6 hrs by Nano-Glo HiBit assay; type: cell-based
[14] = biological target: T1, von Hippel-Lindau disease tumor suppressor/Casein kinase I isoform delta; assay: PROTAC activity at VHL/CK1 delta in HEK293 cells assessed as induction of degradation of CK1 delta at 3 uM measured after 1 hrs by Western blot analysis; type: cell-based
[15] = biological target: T2, von Hippel-Lindau disease tumor suppressor/Casein kinase I isoform alpha (Homo sapiens); assay: PROTAC activity at VHL/Hibit-fused CK1 alpha in human MV4-11 cells assessed as degradation of CK1-alpha at 10 to 30 uM incubated for 6 hrs by Western blot analysis; type: cell-based; settings: dose 10-30 µM
[16] = biological target: T2, von Hippel-Lindau disease tumor suppressor/Casein kinase I isoform alpha (Homo sapiens); assay: PROTAC activity at VHL/CK1 alpha in human MV4-11 cells assessed as degradation of CK1-alpha at 10 to 30 uM incubated for 6 hrs by Western blot analysis; type: cell-based; settings: dose 10-30 µM
[17] = biological target: T1, von Hippel-Lindau disease tumor suppressor/Casein kinase I isoform delta; assay: PROTAC activity at VHL/Hibit-fused CK1 delta in human MV4-11 cells assessed as degradation of CK1-delta at 2.5 uM measured upto 12 hrs in presence of cycloheximide by Nano-Glo HiBiT assay relative to control; type: cell-based
[18] = biological target: T3, von Hippel-Lindau disease tumor suppressor/Casein kinase I isoform epsilon (Homo sapiens); assay: PROTAC activity at VHL/CK1 epsilon in HEK293 cells assessed as induction of degradation of CK1 epsilon at 3 uM measured after 1 hrs by Western blot analysis; type: cell-based
[19] = biological target: T3, von Hippel-Lindau disease tumor suppressor/Casein kinase I isoform epsilon (Homo sapiens); assay: PROTAC activity at VHL/CK1 epsilon in human MV4-11 cells assessed as degradation of CK1 epsilon at 5 to 10 uM incubated for 6 hrs by Western blot analysis; type: cell-based; settings: dose 5-10 µM
[20] = biological target: T2, von Hippel-Lindau disease tumor suppressor/Casein kinase I isoform alpha (Homo sapiens); assay: PROTAC activity at VHL/CK1 alpha (unknown origin) endogenously expressed in HEK293 cells assessed as degradation of CK1-alpha at 10 to 30 uM incubated for 6 hrs by Western blot analysis; type: cell-based; settings: dose 10-30 µM
[21] = biological target: T1, von Hippel-Lindau disease tumor suppressor/Casein kinase I isoform delta; assay: PROTAC activity at VHL/CK1 delta in HEK293 cells assessed as induction of degradation of CK1 delta at upto 20 uM pretreated with LGK974 followed by compound addition and measured after 6 hrs by Western blot analysis; type: cell-based
[22] = biological target: T3, von Hippel-Lindau disease tumor suppressor/Casein kinase I isoform epsilon (Homo sapiens); assay: PROTAC activity at VHL/CK1 epsilon in human HEK293 cells at 0.625 to 10 uM in presence of MU1742 by Western blot analysis; type: cell-based; settings: dose 0.625-10 µM
[23] = biological target: T1, von Hippel-Lindau disease tumor suppressor/Casein kinase I isoform delta; assay: PROTAC activity at VHL/CK1 delta in human HEK293 cells assessed as degradation of CK1-delta at 3 to 20 uM incubated overnight followed by compound washout and measured after 1 hr by Nano-Glo HiBiT assay; type: cell-based; settings: dose 3-20 µM
[24] = biological target: T1, von Hippel-Lindau disease tumor suppressor/Casein kinase I isoform delta; assay: PROTAC activity at VHL/CK1 delta in human U87 cells assessed as induction of degradation of CK1 delta at 1 uM measured after 6 hrs; type: cell-based
[25] = biological target: T3, von Hippel-Lindau disease tumor suppressor/Casein kinase I isoform epsilon (Homo sapiens); assay: PROTAC activity at VHL/CK1 epsilon in human MDA-MB-231 cells assessed as induction of degradation of CK1 epsilon by measuring maximum efficacy at 1 uM measured after 6 hrs relative to control; type: cell-based
[26] = biological target: T3, von Hippel-Lindau disease tumor suppressor/Casein kinase I isoform epsilon (Homo sapiens); assay: PROTAC activity at VHL/Hibit-fused CK1 epsilon in human MV4-11 cells assessed as degradation of CK1 epsilon at 5 to 10 uM incubated for 6 hrs by Western blot analysis; type: cell-based; settings: dose 5-10 µM
[27] = tested on: MV4-11; assay: Cytotoxicity in human MV4-11 cells at >10 uM measured after 72 hrs by alamar blue assay; type: functional, cell-based
[28] = biological target: T3, von Hippel-Lindau disease tumor suppressor/Casein kinase I isoform epsilon (Homo sapiens); assay: PROTAC activity at VHL/CK1 epsilon in HEK293 cells assessed as induction of degradation of CK1 epsilon measured after 6 hrs by Western blot analysis; type: cell-based; settings: dose 0.01-30 µM
[29] = biological target: T1, von Hippel-Lindau disease tumor suppressor/Casein kinase I isoform delta; assay: PROTAC activity at VHL/HiBit fused CK1 delta in human MV4-11 cells assessed as fold change at 0.63 uM measured after 6 hrs in presence of 10 uM of MU1742 by Nano-Glo HiBit assay; type: cell-based
[30] = biological target: T1, von Hippel-Lindau disease tumor suppressor/Casein kinase I isoform delta; assay: PROTAC activity at VHL/CK1 delta in HEK293 cells assessed as induction of degradation of CK1 delta measured after 6 hrs by Western blot analysis; type: cell-based; settings: dose 0.01-30 µM
[31] = biological target: T2, von Hippel-Lindau disease tumor suppressor/Casein kinase I isoform alpha (Homo sapiens); assay: PROTAC activity at VHL/CK1 alpha in HEK293 cells assessed as induction of degradation of CK1 alpha at high concentration measured after 6 hrs by Western blot analysis relative to control; type: cell-based

With `Cc1ncsc1-c1ccc(CNC(=O)[C@H]2C[C@H](O)CN2C(=O)[C@H](NC(=O)CCCCCCC(=O)N2CCC(F)(Cn3cnc(-c4ccc(F)cn4)c3-c3ccnc4[nH]ccc34)CC2)C(C)(C)C)cc1` the fold change (FC) [1] was 0.93, the Activity [2] was “inactive” and the Emax [3] was 75%. The Activity [4] was 100%, the Activity [5] was “Active” and the Activity [6] was “Active”. The fold change (FC) [7] was 0.3, the fold change (FC) [8] was 0.85 and the Activity [9] was “Active”. The Activity [10] was 100%, the Emax [11] was over 50% and the DC50 [12] was 550 nM. The fold change (FC) [13] was 0.49, the Activity [14] was “Active” and the Activity [15] was “Not active; Compound Showed Weak Degradation”. The Activity [16] was “Not active; Compound Showed Weak Degradation”, the Activity [17] was 90% and the Activity [18] was “Active”. For the same compound, the Activity [19] was “Active”, the Activity [20] was “Active” and the Activity [21] was “Active”. The Activity [22] was “inactive”, the Activity [23] was “inactive” and the Activity [24] was “Active”. The Emax [25] was 75%, the Activity [26] was “Active” and the Activity [27] was “Active”. For the same compound, the Activity [28] was “Dose-dependent-effect”, the fold change (FC) [29] was 1.2 and the Activity [30] was “Dose-dependent-effect”. The Activity [31] was “Not active; Compound Showed Weak Degradation”.
